Results as given in PMC9571608, “Detection of Bitterness in Vitamins Is Mediated by the Activation of Bitter Taste Receptors” (Nutrients, 2022).
“And” between values parts separate entries of the source, which are not always exact repeats. Equal entries are not always repeated. Structures can show the parent of a compound that is named as a salt. Each block holds one molecule with its values, some of them ahead of it.

How the values were obtained:
TAS2R38 = molecular target: T1, TAS2R38 (Homo sapiens, UniProt P59533); experiment: Calcium mobilization assay, cells transiently expressing TAS2R38; assay type: cell-based; for TAS2R Receptor 38 response: key: +: positive responses (lines with background color)
T1 construct: expressed in transfected cells; host or cells: HEK293T cells stably expressing Gα16gust44
T1 sequence (P59533 1-333): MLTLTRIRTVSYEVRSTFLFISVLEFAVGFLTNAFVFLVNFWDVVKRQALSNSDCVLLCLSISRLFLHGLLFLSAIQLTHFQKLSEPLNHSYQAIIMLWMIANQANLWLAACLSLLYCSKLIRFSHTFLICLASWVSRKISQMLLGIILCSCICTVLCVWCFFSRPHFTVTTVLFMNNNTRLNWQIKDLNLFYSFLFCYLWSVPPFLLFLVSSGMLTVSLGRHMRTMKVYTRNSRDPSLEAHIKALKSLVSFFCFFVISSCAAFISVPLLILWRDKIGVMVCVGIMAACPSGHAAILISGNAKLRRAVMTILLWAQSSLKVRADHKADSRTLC
Description: (§1) A functional expression study was carried out as described previously. TAS2R expression vectors (pcDNA5FRT-SST3-TAS2R-HSV and pEAK-10-SST3-TAS2RHSV) were kindly provided by Wolfgang Meyerhof (German Institute of Human Nutrition Postdam-Rehbruecke, Nuthetal, Germany). For all constructs, the N-terminus contained the first 45 amino acids of rat somatostatin 3 (SST3) to improve membrane targeting. A sequence coding for a herpes simplex virus glycoprotein D epitope (HSV-tag) was added at the C-terminus to allow immunocytochemical detection of the receptor [13, 14, 23, 24]. HEK293T cells stably expressing the chimeric G protein α subunit Gα16gust44 [25, 26] were seeded into poly-D-lysine-coated 96-well black plates (0.35 × 10^5 cells/well) in high-glucose DMEM supplemented with 2 mM GlutaMAX, 10% dialysed fetal bovine serum penicillin/streptomycin, and G418 (400 µg/mL), and then placed under a humidified and controlled atmosphere (37 °C and 6.3% CO2) overnight. […]
(§2) Approximately 24–26 h after transfection, cells were loaded for 1 h at 37 °C with Fluo4-AM (2 µM, Molecular Probes), which had been previously mixed with pluronic acid F-127 (0.01%) in C1 buffer (130 mM NaCl, 5 mM KCl, 10 mM HEPES, 2 mM CaCl2, 10 mM pyruvic acid, pH 7.4, 300 mOsm) containing 2.5 mM probenecid (Life Technologies). […] The calcium signal was recorded for 90 s after injection of a range of compounds using a Flexstation 3 fluorometric imaging plate reader (Molecular Devices) at a wavelength of 510 nm after excitation at 488 nm. All substance concentrations were measured in triplicate in at least three independent experiments. […]
(§3) To obtain a dose–response curve, the ratio between the maximum variation in fluorescence after ligand addition and the initial fluorescence before addition (ΔF/F0) was calculated for each well. The fluorescence signals collected for each replicate were averaged for the same substance concentration, and the fluorescence changes in the corresponding mock-transfected cells were subtracted. […]

human taste perception = test system: human taste perception; design: method as in doi:10.3758/BF03203878; settings: concentration omitted in the cited paper; cited from earlier work
TAS2R10 = molecular target: T2, TAS2R10 (Homo sapiens, UniProt Q9NYW0); experiment: Calcium mobilization assay, cells transiently expressing TAS2R10; assay type: cell-based; for TAS2R Receptor 10 response: key: +: positive responses (lines with background color)
T2 construct: expressed in transfected cells; host or cells: HEK293T cells stably expressing Gα16gust44
T2 sequence (Q9NYW0 1-307): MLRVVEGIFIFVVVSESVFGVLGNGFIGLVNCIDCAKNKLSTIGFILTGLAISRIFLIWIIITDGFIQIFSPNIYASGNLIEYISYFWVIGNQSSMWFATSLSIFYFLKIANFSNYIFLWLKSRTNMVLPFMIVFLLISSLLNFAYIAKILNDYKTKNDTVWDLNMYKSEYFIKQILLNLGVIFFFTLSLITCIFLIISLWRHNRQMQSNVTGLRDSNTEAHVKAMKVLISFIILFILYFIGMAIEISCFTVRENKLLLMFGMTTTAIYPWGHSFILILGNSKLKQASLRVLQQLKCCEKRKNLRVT
Description: as §1
Approximately one hour after loading, the plate was rinsed twice with 100 µL of C1 buffer. The calcium signal was recorded for 90 s after injection of a range of compounds using a Flexstation 3 fluorometric imaging plate reader (Molecular Devices) at a wavelength of 510 nm after excitation at 488 nm. All substance concentrations were measured in triplicate in at least three independent experiments. […]
(§4) To obtain a dose–response curve, the ratio between the maximum variation in fluorescence after ligand addition and the initial fluorescence before addition (ΔF/F0) was calculated for each well. The fluorescence signals collected for each replicate were averaged for the same substance concentration, and the fluorescence changes in the corresponding mock-transfected cells were subtracted. […] The dose–response data were fitted, and EC50 values were calculated using a four-parameter logistic equation using SigmaPlot software (Systat Software, San Jose, CA, USA). […]

TAS2R14 = molecular target: T3, TAS2R14 (Homo sapiens, UniProt Q9NYV8); experiment: Calcium mobilization assay, cells transiently expressing TAS2R14; assay type: cell-based; for TAS2R Receptor 14 response: key: +: positive responses (lines with background color)
T3 construct: expressed in transfected cells; host or cells: HEK293T cells stably expressing Gα16gust44
T3 sequence (Q9NYV8 1-317): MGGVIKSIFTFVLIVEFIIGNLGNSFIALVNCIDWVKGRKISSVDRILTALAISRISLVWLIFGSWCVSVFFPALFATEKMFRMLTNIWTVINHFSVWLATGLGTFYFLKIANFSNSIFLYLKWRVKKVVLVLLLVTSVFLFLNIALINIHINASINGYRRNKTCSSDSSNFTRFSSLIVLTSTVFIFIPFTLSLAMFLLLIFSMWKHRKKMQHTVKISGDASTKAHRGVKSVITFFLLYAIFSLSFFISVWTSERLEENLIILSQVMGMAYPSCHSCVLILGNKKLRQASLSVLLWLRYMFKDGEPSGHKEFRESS
Description: as §1, §2, §3

TAS2R7 = molecular target: T4, TAS2R7 (Homo sapiens, UniProt Q9NYW3); experiment: Calcium mobilization assay, cells transiently expressing TAS2R7; assay type: cell-based; design: expressed in transfected cells; host or cells: HEK293T cells stably expressing Gα16gust44; for TAS2R Receptor 7 response: key: +: positive responses (lines with background color)
T4 sequence (Q9NYW3 1-318): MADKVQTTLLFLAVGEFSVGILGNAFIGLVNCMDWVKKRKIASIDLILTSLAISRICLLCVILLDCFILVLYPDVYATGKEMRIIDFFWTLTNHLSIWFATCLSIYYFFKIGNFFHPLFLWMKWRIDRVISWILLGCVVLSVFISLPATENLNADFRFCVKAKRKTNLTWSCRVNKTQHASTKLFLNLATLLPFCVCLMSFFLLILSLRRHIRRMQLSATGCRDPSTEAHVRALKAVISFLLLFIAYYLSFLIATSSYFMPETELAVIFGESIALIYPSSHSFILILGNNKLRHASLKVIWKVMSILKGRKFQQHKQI
Description: A functional expression study was carried out as described previously. TAS2R expression vectors (pcDNA5FRT-SST3-TAS2R-HSV and pEAK-10-SST3-TAS2RHSV) were kindly provided by Wolfgang Meyerhof (German Institute of Human Nutrition Postdam-Rehbruecke, Nuthetal, Germany). For all constructs, the N-terminus contained the first 45 amino acids of rat somatostatin 3 (SST3) to improve membrane targeting. A sequence coding for a herpes simplex virus glycoprotein D epitope (HSV-tag) was added at the C-terminus to allow immunocytochemical detection of the receptor [13, 14, 23, 24]. HEK293T cells stably expressing the chimeric G protein α subunit Gα16gust44 [25, 26] were seeded into poly-D-lysine-coated 96-well black plates (0.35 × 10^5 cells/well) in high-glucose DMEM supplemented with 2 mM GlutaMAX, 10% dialysed fetal bovine serum penicillin/streptomycin, and G418 (400 µg/mL), and then placed under a humidified and controlled atmosphere (37 °C and 6.3% CO2) overnight. After 24–26 h of incubation, cells were transiently transfected with TAS2R expression plasmids (120 ng/well) using Lipofectamine 2000 reagent (0.4 µL/well) (Thermo Fisher Scientific, Illkirch-Graffenstaden, France).
Approximately 24–26 h after transfection, cells were loaded for 1 h at 37 °C with Fluo4-AM (2 µM, Molecular Probes), which had been previously mixed with pluronic acid F-127 (0.01%) in C1 buffer (130 mM NaCl, 5 mM KCl, 10 mM HEPES, 2 mM CaCl2, 10 mM pyruvic acid, pH 7.4, 300 mOsm) containing 2.5 mM probenecid (Life Technologies). Approximately one hour after loading, the plate was rinsed twice with 100 µL of C1 buffer. The calcium signal was recorded for 90 s after injection of a range of compounds using a Flexstation 3 fluorometric imaging plate reader (Molecular Devices) at a wavelength of 510 nm after excitation at 488 nm. All substance concentrations were measured in triplicate in at least three independent experiments. As cell transfection and substances can interfere with cellular viability and calcium assays, all compounds were tested on mock-transfected cells (cells transfected with empty vectors) on the same plates for all substance concentrations used.
as §4

25 human TAS2Rs = experiment: Taste receptor functional assay, panel of 25 human TAS2Rs; assay type: cell-based; settings: lowest concentration that could elicit TAS2R activation
Description: A functional expression study was carried out as described previously. TAS2R expression vectors (pcDNA5FRT-SST3-TAS2R-HSV and pEAK-10-SST3-TAS2RHSV) were kindly provided by Wolfgang Meyerhof (German Institute of Human Nutrition Postdam-Rehbruecke, Nuthetal, Germany). For all constructs, the N-terminus contained the first 45 amino acids of rat somatostatin 3 (SST3) to improve membrane targeting. A sequence coding for a herpes simplex virus glycoprotein D epitope (HSV-tag) was added at the C-terminus to allow immunocytochemical detection of the receptor [13, 14, 23, 24]. […]
as §2

[1] = test system: human bitter taste detection (sensory panel); experiment: Human bitter taste detection threshold, three-alternative forced choice (3-AFC), BET method; assay type: in vivo; settings: 32 panelists, group BET
Text: Based on bibliographic studies, preliminary works performed in the laboratory, and the results of taste receptor functional assays, the following vitamins were included in this study: vitamin B1 (thiamine hydrochloride), vitamin B2 (riboflavin phosphate), vitamin B3 (niacinamide), and vitamin B6 (pyridoxine hydrochloride). These vitamins are present in high quantities in nutritional supplements, safe for humans (except at very high concentrations), and can induce a strong bitter taste. These concentrations were determined according to the toxicity threshold of each compound tested and the maximum daily reference intake. These compounds were prepared in commercial mineral water (Evian®, Evian, France).
The threshold values for bitter taste detection were determined by 32 panelists (18–65 years old, 14 males and 18 females, without sensory perception disorders, food allergies, drug treatments, or heart, lung, or cardiac pathologies) who were recruited from Dijon (France) and the surrounding areas. An ethical committee approved this study (Personal Protection Committee of Rennes—Ouest V, protocol code 2018A01342-53), and all panelists signed an informed consent form. A sensory test called three-alternative forced choice (3-AFC) was used in accordance with the protocol detailed in NF ISO 13301. Before performing the measurement sessions, four training sessions were provided to familiarize the panelists with the bitter taste, test procedure, and signal acquisition software. In this discriminative test, six series consisting of three samples, which were each encoded using randomly generated three-digit numbers, were simultaneously delivered to the panelists. The six 3-AFC presentations contained two blank samples (commercial mineral water, manufacturer: Evian, France) and ascending concentrations of vitamin solution. Before the test, subjects were advised that each presentation consisted of two samples that contained only water and one sample that contained a taste. For each 3-AFC presentation, subjects were asked to take the samples sequentially from left to right. Then, they placed the entirety of each sample solution in their mouths and carefully gargled to ensure that the solution was dispersed throughout the mouth. A sip-and-spit procedure was used; subjects rinsed their mouths with commercial mineral water between each series of tests. Subjects were asked to indicate which of the samples contained the stimulus. If a subject perceived no difference between the three samples, he or she was asked to choose one (forced choice). The sensory tests were conducted in a room devoted to sensory evaluation. For the case of colored samples, black-colored glasses were used, and tastings were performed under red light. […] The aim of this sensory analysis was to determine the bitter taste detection threshold for these vitamins and not an olfactory detection threshold. Therefore, the measurements were conducted using pinched nose clips. The subjects waited one minute between each series and had to thoroughly rinse their mouths. Four repetitions were performed per subject for each vitamin to obtain statistically interpretable results, which represented a total of 288 samples. During the sensory analysis session, a bitterness detection threshold of only two vitamins was used (36 samples) to avoid the ingestion of a high vitamin quantity, which is potentially harmful. The answers from the panelists were collected using software dedicated to sensory analysis (FIZZ acquisition V.2.51 software).
The best estimate threshold (BET) method was used to determine the bitter detection threshold for four vitamins. The individual best-estimated detection threshold (BET) was proposed in ASTM E679-04. ASTM E679-04 is a standard practice for the determination of odor and taste thresholds via a forced-choice ascending concentration series method of limits. […]

[2] = HEK293T-Gα16gust44 cells, calcium signal, up to M.A.C

- TAS2R38 activation (TAS2R38; 1 mM): strongly activate
- TAS2R Receptor 38 response (TAS2R38; [2]): +
- EC50 (TAS2R38; TAS2R38-expressing HEK293T cells, Fluo-4 calcium response, read-out: EC50 (half-maximal TAS2R38 activation)): 0.29 ± 0.2 mM
Compound: CC1=C(/C=C/C(C)=C/C=C/C(C)=C/C=O)C(C)(C)CCC1 [Vitamin A, retinal]

Compound: C=C1CC[C@H](O)C/C1=C/C=C1\CCC[C@]2(C)[C@@H]([C@H](C)CCCC(C)C)CC[C@@H]12 [Vitamin D, cholecalciferol]
- Taste described by sensory analysis (human taste perception): tasteless
- TAS2R10 activation (TAS2R10; 1 mM): strongly activate
- TAS2R Receptor 10 response (TAS2R10; [2]): +
- EC50 (TAS2R10; read-out: EC50 (half-maximal TAS2R10 activation), TAS2R10-expressing HEK293T cells, Fluo-4 calcium response): 0.25 ± 0.2 mM

- TAS2R14 response (TAS2R14; 100 mM): robust response
- TAS2R Receptor 14 response (TAS2R14; [2]): +
- EC50 (TAS2R14; TAS2R14-expressing HEK293T cells, Fluo-4 calcium response, read-out: EC50 (half-maximal TAS2R14 activation)): 10.5 ± 1.47 mM
- TAS2R7 response (TAS2R7; 100 mM): robust response
- TAS2R Receptor 7 response (TAS2R7; [2]): +
- EC50 (TAS2R7; TAS2R7-expressing HEK293T cells, Fluo-4 calcium response, read-out: EC50 (half-maximal TAS2R7 activation)): 25.5 ± 11.8 mM
Compound: Cc1ncc(CO)c(CO)c1O [Vitamin B6, pyridoxine hydrochloride]
- Cellular Bitter Taste Detection Threshold (25 human TAS2Rs): 1 mM and 1.00 mM
- Human Bitter Taste Detection Threshold ([1]; Figure 3, aqueous solution): 5.2 mM
- Human Bitter Taste Detection Threshold ([1]; aqueous solution (mineral water), nose clips, listed as B6): 5.20 mM
- Human Bitter Taste Detection Threshold ([1]; aqueous solution (mineral water), nose clips, listed as vitamin B6): 5.2 mM
